Key:
recombinant DNMT3a = recombinant DNMT3a (Homo sapiens, UniProt Q9Y6K1); assay: DNMT3a enzyme kinetic (activity) assay, 3H-SAM filter; type: biochemical; conditions: FIG. 1B, 0-0.0001 M
Description: (§1) The enzyme kinetic studies were carried out by Reaction Biology Company. For the DNMT1 activity assay, the substrate solution, 0.001 mg/ml Poly(dI-dC): Poly(dI-dC) in 50 mM Tris-HCl, pH 7.5, 50 mM NaCl, 5 mM EDTA, 5 mM DTT, 1 mM PMSF, 5% glycerol, 0.01% Brij™35, 1% DMSO was used. For the DNMT3a/3b activity assay, 0.0075 mg/ml Lambda DNA in 50 mM Tris-HCl, pH 7.5, 50 mM NaCl, 5 mM EDTA, 5 mM DTT, 1 mM PMSF, 5% glycerol, 1% DMSO, was used. The indicated DNMT1, DNMT3a and DNMT3b were added to the appropriate substrate solution and gently mixed. Amounts of CA ranging from 5.08E-09 to 0.0001 M in DMSO were added to the reaction mixture by using Acoustic Technology (Echo® 550, LabCyte Inc. Sunnyvale, CA). The mixtures were first incubated for 15 min, then ^3H-SAM was added to the reaction mixture to initiate the reaction, and the mixture was incubated for 60 min at 30° C. Following incubation, the reaction mixture was finally transferred to filter-paper for detection of radioactivity counts.

recombinant DNMT1 = recombinant DNMT1 (Homo sapiens, UniProt P26358); assay: DNMT1 enzyme kinetic (activity) assay, 3H-SAM filter; type: biochemical; conditions: FIG. 1B, 0-0.0001 M
Chain of recombinant DNMT1 (P26358 whole entry): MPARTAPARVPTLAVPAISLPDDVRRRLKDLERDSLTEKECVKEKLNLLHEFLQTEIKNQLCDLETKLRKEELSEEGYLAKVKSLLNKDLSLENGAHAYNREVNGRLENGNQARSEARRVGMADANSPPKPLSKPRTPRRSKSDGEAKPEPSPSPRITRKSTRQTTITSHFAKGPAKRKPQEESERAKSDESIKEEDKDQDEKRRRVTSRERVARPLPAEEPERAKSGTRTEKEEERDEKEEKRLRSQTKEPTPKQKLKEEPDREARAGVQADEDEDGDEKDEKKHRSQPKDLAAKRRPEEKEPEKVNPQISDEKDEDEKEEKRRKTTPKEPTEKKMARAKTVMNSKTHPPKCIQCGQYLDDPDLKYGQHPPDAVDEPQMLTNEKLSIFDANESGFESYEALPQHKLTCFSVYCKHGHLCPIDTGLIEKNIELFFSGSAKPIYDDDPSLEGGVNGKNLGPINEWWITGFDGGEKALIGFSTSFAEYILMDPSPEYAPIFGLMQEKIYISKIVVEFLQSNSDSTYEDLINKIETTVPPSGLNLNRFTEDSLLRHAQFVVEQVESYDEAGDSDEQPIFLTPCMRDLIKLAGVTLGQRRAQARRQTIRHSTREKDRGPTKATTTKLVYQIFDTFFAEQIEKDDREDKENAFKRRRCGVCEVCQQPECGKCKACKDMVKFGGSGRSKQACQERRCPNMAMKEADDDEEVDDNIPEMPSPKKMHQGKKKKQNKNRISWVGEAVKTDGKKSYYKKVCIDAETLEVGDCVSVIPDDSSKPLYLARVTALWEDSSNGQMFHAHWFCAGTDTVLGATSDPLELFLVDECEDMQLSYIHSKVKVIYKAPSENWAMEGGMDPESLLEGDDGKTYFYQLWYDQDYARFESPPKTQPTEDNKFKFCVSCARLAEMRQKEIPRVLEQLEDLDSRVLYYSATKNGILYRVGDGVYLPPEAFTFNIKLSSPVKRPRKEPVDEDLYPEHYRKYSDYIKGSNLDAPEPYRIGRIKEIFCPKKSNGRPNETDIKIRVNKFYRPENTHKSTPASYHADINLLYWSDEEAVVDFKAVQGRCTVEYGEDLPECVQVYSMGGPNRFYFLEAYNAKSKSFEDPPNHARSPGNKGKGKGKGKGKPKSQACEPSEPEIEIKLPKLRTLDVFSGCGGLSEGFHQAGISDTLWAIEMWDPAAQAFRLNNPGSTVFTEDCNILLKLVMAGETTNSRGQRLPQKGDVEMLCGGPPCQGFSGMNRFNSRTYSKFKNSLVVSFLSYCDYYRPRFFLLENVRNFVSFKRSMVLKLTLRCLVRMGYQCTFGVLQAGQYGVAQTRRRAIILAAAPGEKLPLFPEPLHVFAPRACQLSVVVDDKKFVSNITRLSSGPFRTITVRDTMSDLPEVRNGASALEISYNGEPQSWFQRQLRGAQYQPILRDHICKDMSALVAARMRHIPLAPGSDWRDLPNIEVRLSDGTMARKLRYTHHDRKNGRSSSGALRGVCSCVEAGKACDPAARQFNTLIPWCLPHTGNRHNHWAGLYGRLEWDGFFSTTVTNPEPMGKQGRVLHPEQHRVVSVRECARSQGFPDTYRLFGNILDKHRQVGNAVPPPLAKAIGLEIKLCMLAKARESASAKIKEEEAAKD
Description: as §1

Hep G2 cells = type: in vitro ADME, human
Excerpt: Mitochondrial oxysterols, including cholestenoic acid (CA), 25-hydroxycholesterol (25HC), and 27-hydroxycholesterol (27HC), are potent regulators involved in important biological events such as lipid metabolism and inflammatory responses. However, their intracellular catabolic pathways have not been fully explored. In this study, we investigated the metabolic pathways of these oxysterols and their roles in the communication between hepatocytes and macrophages.

recombinant DNMT3b = recombinant DNMT3b (Homo sapiens, UniProt Q9UBC3); assay: DNMT3b enzyme kinetic (activity) assay, 3H-SAM filter; type: biochemical; conditions: FIG. 1B, 0-0.0001 M
Description: as §1

Human THP-1 macrophages = assay: LPS induced inflammatory gene expression in macrophages, real-time RT-PCR; type: cell-based; conditions: 20 uM CA3S 30 min, then 2 ug/ml LPS 6 hours
Description: Human THP-1 were plated in 6 well plates with RPMI 1640 media (10% FBS) and induced to be macrophages by 100 nM PMA for 3 days at 37° C. in a […] incubator. The media was then changed to fresh RPMI 1640 (serum free), the cells were treated with 20 uM CA3S in PG for 30 min, and then the cells were stimulated with 2 ug/ml LPS for 6 hours. Total mRNA was extracted by the Promega SV total RNA isolation system (Promega, Madison, WI, USA) and 1 ug of RNA were converted to cDNA with a Reverse Transcription kit (Qiagen, Hilden, Germany). IL-1A, IL-1B, IL-6, IL-8, COX-2, NFKB and TNFα gene expressions were determined by Real-time RT-PCR that was performed using SYBR Green as the indicator on ABI 7500 Fast Real-Time PCR System (Applied Biosystems, Foster City, CA).

Chain of recombinant DNMT3a (Q9Y6K1 whole entry, looked up): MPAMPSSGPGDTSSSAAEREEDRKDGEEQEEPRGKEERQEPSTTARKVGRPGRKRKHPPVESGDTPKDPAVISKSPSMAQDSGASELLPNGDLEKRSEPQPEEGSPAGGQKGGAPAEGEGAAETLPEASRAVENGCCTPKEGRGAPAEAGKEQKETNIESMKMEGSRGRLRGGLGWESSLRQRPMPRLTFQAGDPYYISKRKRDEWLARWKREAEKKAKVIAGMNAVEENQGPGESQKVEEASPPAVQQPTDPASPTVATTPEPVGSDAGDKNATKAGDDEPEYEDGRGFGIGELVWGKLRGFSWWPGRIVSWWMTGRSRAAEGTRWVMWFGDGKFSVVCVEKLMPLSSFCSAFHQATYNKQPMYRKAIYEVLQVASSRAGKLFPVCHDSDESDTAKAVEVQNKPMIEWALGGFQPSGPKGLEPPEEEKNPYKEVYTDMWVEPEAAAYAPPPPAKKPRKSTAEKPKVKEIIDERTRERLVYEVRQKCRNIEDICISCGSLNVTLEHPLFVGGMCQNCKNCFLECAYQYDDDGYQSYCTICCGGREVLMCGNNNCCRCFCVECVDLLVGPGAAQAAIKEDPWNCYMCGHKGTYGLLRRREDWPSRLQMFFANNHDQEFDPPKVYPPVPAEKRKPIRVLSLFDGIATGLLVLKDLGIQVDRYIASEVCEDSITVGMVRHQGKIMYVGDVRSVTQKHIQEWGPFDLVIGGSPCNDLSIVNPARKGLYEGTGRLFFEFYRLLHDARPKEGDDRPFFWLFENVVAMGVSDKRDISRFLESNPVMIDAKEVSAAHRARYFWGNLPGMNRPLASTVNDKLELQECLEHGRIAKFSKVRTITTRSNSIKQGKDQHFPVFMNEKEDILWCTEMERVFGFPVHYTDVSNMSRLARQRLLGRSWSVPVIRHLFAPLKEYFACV

| SMILES | effect on DNMT3a enzymatic activity (recombinant DNMT3a) | effect on DNMT1 enzymatic activity (recombinant DNMT1) | part of formed 25HC3S released into the media (Hep G2 cells) | effect on DNMT3b enzymatic activity (recombinant DNMT3b) | part of the compound converted to 27HC3S (Hep G2 cells) | part of the compound converted to CA3S (Hep G2 cells) | decrease of COX-2 gene expression (Human THP-1 macrophages) | decrease of IL-6 gene expression (Human THP-1 macrophages) |
| --- | --- | --- | --- | --- | --- | --- | --- | --- |
| C[C@H](CCCC(C)(C)O)[C@H]1CC[C@H]2[C@@H]3CC=C4C[C@@H](O)CC[C@]4(C)[C@H]3CC[C@]12C [25HC, 25-hydroxycholesterol] | do not have any effect | potent activators | ⅓ | do not have any effect | – | – | – | – |
| C[C@@H](CO)CCC[C@@H](C)[C@H]1CC[C@H]2[C@@H]3CC=C4C[C@@H](O)CC[C@]4(C)[C@H]3CC[C@]12C [27HC, 27-hydroxycholesterol] | do not have any effect | potent activators | – | do not have any effect | ⅓ | ⅔ | – | – |
| CC(CCC[C@@H](C)[C@H]1CCC2[C@@H]3CC=C4CC(OS(=O)(=O)O)CC[C@]4(C)C3CC[C@@]21C)C(=O)O (stereo partly drawn) [CA3S, 3 β-hydroxy-5-cholestenoic acid 3-sulfate] | – | – | – | – | – | – | 5 fold | 6 fold |

Source: patent US20260137701A1, “CHOLESTENOIC ACID (CA) AND A SULFATED DERIVATIVE THEREOF, 3[BETA]-SULFATE-5-CHOLESTENOIC ACID (CA3S), AS ENDOGENOUS EPIGENETIC REGULATORS” (priority 2022, published 2026)
